Test results from patent US20070078109A1, “Compositions and methods used to treat acne and candida” (priority 2004, published 2007).

Columns and labels:
[1] = test system: Staphyloccocus aureus; settings: at low concentration
[2] = test system: C. albicans isolates, including one fluconazole-resistant strain; settings: AGP at 0.25% topical, 1-7 days, cyclophosphamide-immunosuppressed animals; compared with 2% miconazole
Procedure: Pre-clinical studies with three C. albicans isolates, including one fluconazole-resistant strain, were performed using immunosuppressed animals with cyclophosphamide.

[3] = test system: Escherichia coli; settings: at low concentration
[4] = test system: P. acnes and various pathogenic candida; settings: including against resistant pathogenic strains
[5] = test system: P. acnes; settings: complete inhibition
[6] = test system: acne; settings: 4% active AGP formula; in less than 48 hours

Question: What does the source list for “N-acetylglucoseamine (AGA)-glucosamine (GA)-pyrithione (PR) [AGP]”?
Answer: activity toward Staphyloccocus aureus [1]: active; clearing the infection [2]: equivalent in clearing the infection as 2% miconazole; activity toward Escherichia coli [3]: active; bactericidal activity [4]: excellent bactericidal activity; concentration that completely inhibited P. acnes [5]: less than 0.1 mg/mL; results in acne patients [6]: remarkable results
